From patent publication US6531472B2, “Tetralone derivatives” (Hoffman-La Roche Inc., priority 2000, dated 2003)

What follows are molecules tested on HDAC (assay: HDAC inhibition screening assay using an aminocoumarin derivative of an omega-acetylated lysine as substrate). Settings: compound concentration 10 nM.
Type: biochemical
Experimental: To measure the HDAC inhibitory properties of the compounds of the invention a screening assay was established using an aminocoumarin derivative of an omega-acetylated lysine as substrate for the enzyme. […] Using the protocol described therein, the inhibitory effect of the new compounds was determined at a concentration of 10 nM.

| SMILES | Inhibitory effect at 10 nM in % |
| --- | --- |
| COc1ccc2c(c1)CCC(CCCCC(=O)NO)C2=O (stereo not drawn) [Example 2, 5-(6-methoxy-1-oxo-1,2,3,4-tetrahydro-naphthalen-2-yl)-pentanoic acid hydroxyamide] | 64% |
| CC1(CCCCCC(=O)NO)CCc2ccccc2C1=O (stereo not drawn) [Example 4, 6-(2-methyl-1-oxo-1,2,3,4-tetrahydro-naphthalen-2-yl)-hexanoic acid hydroxyamide] | 71% |
| CC1(/C=C/CCCC(=O)NO)CCc2ccccc2C1=O (stereo not drawn) [Example 7, 6-(2-methyl-1-oxo-1,2,3,4-tetrahydro-naphthalen-2-yl)-hex-5-enoic acid hydroxyamide] | 60% |
| COc1cccc2c1CCC(CCCCCC(=O)NO)C2=O (stereo not drawn) [Example 8] | 72% |
| CCOC(=O)C1(CCCCCC(=O)NO)CCc2c(OC)cccc2C1=O (stereo not drawn) [Example 9, 2-(5-hydroxycarbamoyl-pentyl)-5-methoxy-1-oxo-1,2,3,4-tetrahydro-naphtalene-2-carboxyclic acid ethyl ester] | 57% |
| CCOC(=O)C1(CCCCCCCC(=O)NO)CCc2c(C)cc(C)cc2C1=O (stereo not drawn) [Example 10, 2-(7-Hydroxycarbamoyl-heptyl)-5,7-dimethyl-1-oxo-1,2,3,4-tetrahydro-naphtalene-2-carboxylic acid ethyl ester] | 55% |
